According to a melting point compilation (Tetko et al.; mined from patent text by program, amines drawn as free bases though some values may be those of a salt):

melting point [°C] | SMILES
110 to 112 | O=C1C(CCO)Oc2ccc(F)cc2N1Cc1cccc([N+](=O)[O-])c1 (stereo not given)
353 to 355 | O=c1[nH][nH]c(=O)c2nc3cc(Cl)ccc3cc12
142 to 144 | CCOC(=O)c1cc2c(OCC3CO3)cccc2[nH]1 (stereo not given)
146 to 147 | CN(C)C1CCc2oc3ccc(NC(=O)c4ccncc4)cc3c2C1 (stereo not given)
154 to 155 | CCN(CC)C(=O)Nc1ccc(-c2c[nH]c(=O)cn2)cc1
86 to 88 | O=C(c1ccc([N+](=O)[O-])cc1)N1CCCc2ccccc21
57 | CCOCCOc1ccc(C(=O)CN(Cc2ccccc2)Cc2ccccc2)cc1C(=O)OC
108 to 109 | C[C@]1(CN2CCC(Nc3ccc(OC(F)(F)F)cc3)CC2)Cn2cc([N+](=O)[O-])nc2O1
208 to 210 | CCC(=O)c1ncc(Nc2cc(C)[nH]n2)nc1Nc1ccc(F)cc1
143 to 144 | CCOC(=O)N1CCOC(CC23CC(c4ccccc42)c2ccccc23)C1 (stereo not given)
203 to 204 | COc1cccc(CNC(=O)c2[nH]c3ccc(Cl)cc3c2S(=O)(=O)c2ccccc2)c1
103 to 106 | CCC(CC)Nc1c([N+](=O)[O-])cc(C)c(COC(=O)COc2ccc(Cl)cc2Cl)c1[N+](=O)[O-]
120 | COc1cc2c(cc1OC)CN(CCc1ccc(N)cc1)CC2
108 to 110 | CC1(C)CN(S(=O)(=O)c2ccccc2F)c2cccc(Br)c2O1
266 to 267 | CC(C)(c1ccc(C(=O)Nc2cn3cc(Cl)ccc3n2)cc1)c1nnn[nH]1
178 to 182 | O=C(O)c1ccc(Cc2ccc([N+](=O)[O-])cc2)cn1
136 to 138 | CC(=O)Nc1c(C(=O)c2ccccc2)[nH]c2cc(C)ccc12
230 | Cc1cc(C)cc(Sc2c(CN3CCOCC3)c(C)[nH]c(=O)c2I)c1

melting point [°C] | SMILES
95 to 97 | O=C(CCCNC(=O)C(=O)c1cn2c3c(cccc13)CCC2)NO
157 | Cc1nn(-c2ccc(F)cc2)cc1C(=O)N(CC(=O)O)c1ccc(OCC(C)(C)C)c(C#N)c1
80 to 85 | N#Cc1ccc(C(=O)N2CCC[C@H]2C(=O)O)cc1
148 to 150 | NCC1CCc2[nH]c3ccc(OC(F)(F)F)cc3c2C1 (stereo not given)
192 to 194 | CN1C(=O)C2(COc3cc4c(cc32)OCCO4)c2c(NC(=O)c3ccccc3)cccc21 (stereo not given)
159 to 160 | O=C1NC(=O)c2ccc(-c3ccc(CN4CCCCC4)cc3)cc2C1=CNc1ccc(CN2CCCCC2)cc1
140 | Cn1c(-c2ccccc2Cl)nnc1-c1ccccc1Cl
180 to 182 | COc1cc(N)c(Cl)cc1C(=O)NCCC1CN(Cc2ccc(C#N)cc2)CCO1 (stereo not given)
205 to 209 | Cn1ccc2cc(NC(=O)Nc3cccc4cccnc34)ccc21
150 | CCCCc1noc(-c2ccccc2)c1-c1ccc(S(N)(=O)=O)cc1
184 to 186 | Oc1cc(Cl)c2nc(-c3ccc(O)c(F)c3)cc(Br)c2c1
157 | O=C(c1ccc(F)cc1)C1CCN(CCCn2c(=O)[nH]c3ccc(Cl)cc32)CC1
214 to 216 | O=C(O)[C@H]1C[C@H](NC(=O)N(c2ccccc2)c2ccccc2)c2c(Cl)cc(Cl)cc2N1 (relative stereo)
77 to 79 | O=C(CC1CCOC1=O)c1ccccc1 (stereo not given)
300 to 303 | Nc1nc(N)c2c(ccc3[nH]c4c(c32)CCCC4)n1
91 to 93 | O=C(NCc1ccccc1Cl)c1cccnc1OCc1cccnc1
178 to 180 | CCC1CCC(NC(=O)NS(=O)(=O)c2ccc(CCNC(=O)N3CCC(C)CC3=O)cc2)CC1 (stereo not given)

The next lines start with the compound.

SMILES | melting point [°C]
Cc1nn(C)c(S(N)(=O)=O)c1[N+](=O)[O-] | 138 to 140
CCCC(=O)OC1(C(=O)COC(=O)CC)CCC2C3CC(C)C4=CC(=O)C=CC4(C)C3C(O)CC21C (stereo not given) | 126
Fc1cc(F)cc(C=Cc2cc3cc4ccccc4cc3s2)c1 | 265 to 267
CCOC(=O)c1sc2ccc(Br)cc2c1C | 87 to 88
CCOc1ccccc1C=[N+]([O-])C(C)C | 59.4
COc1ccnc(CCc2nc3cc(C)cnc3[nH]2)c1 | 150 to 152
O=C(O)CCSC1c2ccccc2COc2ccc(OCc3ccc4cc(F)ccc4n3)cc21 (stereo not given) | 167 to 171
O=C(c1cc(O)c(O)c(O)c1)c1csc(-c2ccccc2)n1 | 175 to 176
CCOC(=O)c1nc(Cl)nc(N)c1OC | 118 to 119
CCCCN(CCCC)C(=N)c1ccc(-c2ccc([N+](=O)[O-])cc2)o1 | 100 to 101
Oc1cc(-c2c3ccccc3c(Br)c3sc4ccccc4c23)ccc1Br | 111 to 112
CCc1cc(OCc2ccccc2)cc(=O)o1 | 62 to 63
COc1cc2c(c(Cl)c1Cl)C(=O)C(CCCCCl)C2 (stereo not given) | 92
CCN(CC)c1nc(C(C)(C)C)nn1-c1c([N+](=O)[O-])cc(C(F)(F)F)cc1[N+](=O)[O-] | 64 to 65
Cc1cc(-c2cnn3c(C(F)(F)F)cc(-c4cccc(C(F)(F)F)c4)nc23)ccn1 | 232
OCc1csc(N2CCCCC2)n1 | 89 to 90
CC(C)c1cc2c(cc1Oc1cnc(N)nc1N)OCCN2C | 167 to 170
C=CC1=CC=C(OC)C(OC)([N+](=O)[O-])C1 (stereo not given) | 140 to 141

SMILES | melting point [°C]
Cc1nn(Cc2ccccc2)c2c1C(=O)CC(C)(C)C2 | 133 to 134
Nc1cc(Sc2ccc3c(C(=O)Nc4cccc(OC(F)(F)F)c4)cccc3c2)ncn1 | 197 to 199
COc1cc2c(cc1OC)N(C)C(=O)CN=C2c1cccc(C)c1 | 119 to 121
COc1ccc(C2(C3CCCC3=O)CCC(C(=O)O)CC2)c2c1OCCO2 (stereo not given) | 200 to 201
Cc1c(C)c(O)c([N+](=O)[O-])c(C)c1O | 105 to 106
CN(C)C(=O)C1(c2ccccc2)CCNCC1 | 95
Cc1cc(O)n2nc(S(=O)(=O)Nc3ccccc3C(F)(F)F)nc2n1 | 245 to 247
CN(C)CC#CCNC(=O)C(O)(c1ccccc1)C1CCCCC1 (single isomer, unassigned; (-)) | 120 to 121
N#CN=C(NCCO)NCCCSc1nccc(NC(N)=NCC(F)(F)F)n1 | 114 to 116
O=c1[nH]nc2n1-c1ccc(Cl)nc1C(c1ccccc1)=NC2 | 222 to 224
COc1ccc(C2(CCN3CCC(c4nc5ccccc5s4)CC3)CCN(C(=O)c3ccccc3)C2)cc1OC (stereo not given) | 60 to 62
Cc1noc(NS(=O)(=O)c2ccsc2C(=O)NCc2ccccc2)c1Br | 186 to 190
NS(=O)(=O)c1cccc(-c2cccc(-c3nc(-c4ccc(C(F)(F)F)c(F)c4)cc(C(F)(F)F)n3)c2)c1 | 228
Cc1ccc(S(=O)(=O)NC2(C)c3ccccc3C=Cc3ccccc32)cc1 | 175 to 178
NNC(=O)c1cnc2n(c1=O)CCC2 | 180 to 181
CC(C)[C@H](NC(=O)OCc1ccccc1)C(=O)NCCCNC(=O)[C@@H](NC(=O)OCc1ccccc1)C(C)C | 211 to 212
Cc1cccc(OCC(O)CNCCOc2ccccc2)c1 (stereo not given) | 81 to 82
